Measurements published in US5643784A, “Indan derivatives” (H, Lundbeck A/S, priority 1990, dated 1997).

How the values were obtained:
α1 adrenoceptors = test: Inhibition of 3H-prazosin binding to α1 adrenoceptors in rat brain in vitro; details: for IC50: 3H-Prazosin 0.25 nM, rat brain, 25° C., 20 min, read-out: Receptor Binding, IC50 α1 3H-Praz
Procedure: INHIBITION OF ^3 H-PRAZOSIN BINDING TO α1 ADRENOCEPTORS IN RAT BRAIN IN VITRO
Method and results in Hyttel & Larsen, J. Neurochem, 44, 1615-1622, 1985; Skarsfeldt & Hyttel, Eur. J. Pharmacol. 125, 323-340, 1986.
(§1) Male Wistar (Mol:Wist) rats (125-200 g) are sacrificed and brain tissue is dissected and weighed. The tissue is homogenized (Ultra Turrax, 10 sec.) in 10 ml of ice-cold 50 nM Tris buffer pH 7,7 (at 25° C.). The homogenate is centrifuged twice at 20,000 g for 10 min. at 4° C. with rehomogenization of the pellet in 10 ml ice-cold buffer. The final pellet is homogenized in 400 vol (w/v) ice-cold buffer.
Incubation tubes kept on ice in triplicate receive 100 μl of drug solution in water (or water for total binding) and 4000μl of tissue suspension (final tissue content corresponds to 10 mg original tissue). The binding experiment is initiated by addition of 100 μl of ^3 H-Prazosin (final concentration 0.25 nM) and by placing the tubes in a 25° C. water bath. After incubation for 20 min. the samples are filtered under vacuum (0-50 mBar) through Whatman GF/F filters (25 mm). The tubes are rinsed with 5 ml ice-cold buffer which then are poured on the filters. Thereafter, the filters are washed with 5 ml of buffer. The filters are placed in counting vials and 4 ml of appropriate scintillation fluid (e.g. Picofluor™15) are added. After shaking for 1 h and storage 2 hrs in the dark the content of radioactivity is determined by liquid scintillation counting. Specific binding is obtained by subtracting the nonspecific binding in the presence of 1 μM of Prazosin.
(§2) For determination of the inhibition of binding five concentrations of drugs covering 3 decades are used.
The measured cpm are plotted against drug concentration on semilogarithmic paper and the best fitting S-shaped curve is drawn. The IC50 value is determined as the concentration at which the binding is 50% of the total binding in control samples minus the nonspecific binding in the presence of 1 μM of Prazosin.
^3 H-Prazosin=[furoyl-5-^3 H]-Prazosin from New England Nuclear, specific activity approximately 20 Ci/mmol.

dopamine D-2 receptors = biological target: T1, dopamine D-2 receptors (Rattus norvegicus, UniProt P61169); test: Inhibition of 3H-spiperone binding to dopamine D-2 receptors in rat corpus striatum in vitro; details: 3H-spiperone 0.5 nM, rat corpus striatum, 37° C., 10 min; read-out: Receptor Binding; IC50 DA D-2 3H-Spi
T1 construct: striatal tissue is dissected and weighed; from tissue; host or cells: corpus striatum of male Wistar rats, crude membranes
T1 sequence (P61169 whole entry): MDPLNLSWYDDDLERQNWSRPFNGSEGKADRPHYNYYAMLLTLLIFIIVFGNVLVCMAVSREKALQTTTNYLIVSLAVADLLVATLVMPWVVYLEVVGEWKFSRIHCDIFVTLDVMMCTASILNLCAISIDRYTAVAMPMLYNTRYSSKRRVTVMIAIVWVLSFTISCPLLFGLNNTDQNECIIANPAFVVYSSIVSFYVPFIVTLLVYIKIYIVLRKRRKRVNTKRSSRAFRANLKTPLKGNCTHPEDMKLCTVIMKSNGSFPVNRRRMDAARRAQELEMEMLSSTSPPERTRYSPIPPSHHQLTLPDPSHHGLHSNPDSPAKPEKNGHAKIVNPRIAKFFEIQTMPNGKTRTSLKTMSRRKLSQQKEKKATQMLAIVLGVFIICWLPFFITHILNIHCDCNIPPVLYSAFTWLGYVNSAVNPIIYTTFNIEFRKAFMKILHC
Procedure: INHIBITION OF ^3 H-SPIPERONE BINDING TO DOPAMINE D-2 RECEPTORS IN RAT CORPUS STRIATUM IN VITRO
By this method the inhibition by drugs of the binding of ^3 H-spiperone (0.5 nM) to dopamine D-2 receptors in membranes from rat corpus striatum is determined in vitro.
as §1, with “(Mol:Wistar)” for “(Mol:Wist)”, “(125-250” for “(125-200”, “striatal” for “brain”, “mM K-phosphate” for “nM Tris”, “7.4” for “7,7”, “1300” for “400”
Incubation tubes kept on ice in triplicate receive 100 μl of drug solution in water (or water for total binding) and 4000 μl of tissue suspension (final tissue content corresponds to 3.08 mg original tissue). The binding experimental is initiated by addition of 100 μl of ^3 H-spiperone (final concentration 0.5 nM) and by placing the tubes in a 37° C. water bath. After incubation for 10 min. the samples are filtered under vacuum (0-50 mBar) through Whatman GF/F filters (25 mm). The tubes are rinsed with 5 ml ice-cold buffer which are then poured on the filters. Thereafter, the filters are washed with 2×5 ml of buffer. The filters are placed in counting vials and 4 ml of appropriate scintillation fluid (e.g. Picofluor ™15) are added. After shaking for 1 h and storage 2 hrs in the dark the content of radioactivity is determined by liquid scintillation counting. Specific binding is obtained by subtracting the nonspecific binding in the presence of 10 μM of 6,7-ADTN.
as §2
^3 H-Spiperone=[phenyl-4-^3 H]-spiperone from Amersham International plc. England, specific activity 15-25 Ci/mmol.

5-HT2 receptors = biological target: T2, 5-HT2 receptors (Rattus norvegicus, UniProt P14842); test: Inhibition of 3H-ketanserin binding to 5-HT2 receptors in rat cortex in vitro; details: for IC50: 3H-Ketanserin 0.5 nM, rat cortex, 37° C., 30 min, read-out: Receptor Binding, IC50 5-HT2 3H-Ket
T2 construct: cortical tissue is dissected and weighed; from tissue; host or cells: cortex of male Wistar rats, crude membranes
T2 sequence (P14842 whole entry): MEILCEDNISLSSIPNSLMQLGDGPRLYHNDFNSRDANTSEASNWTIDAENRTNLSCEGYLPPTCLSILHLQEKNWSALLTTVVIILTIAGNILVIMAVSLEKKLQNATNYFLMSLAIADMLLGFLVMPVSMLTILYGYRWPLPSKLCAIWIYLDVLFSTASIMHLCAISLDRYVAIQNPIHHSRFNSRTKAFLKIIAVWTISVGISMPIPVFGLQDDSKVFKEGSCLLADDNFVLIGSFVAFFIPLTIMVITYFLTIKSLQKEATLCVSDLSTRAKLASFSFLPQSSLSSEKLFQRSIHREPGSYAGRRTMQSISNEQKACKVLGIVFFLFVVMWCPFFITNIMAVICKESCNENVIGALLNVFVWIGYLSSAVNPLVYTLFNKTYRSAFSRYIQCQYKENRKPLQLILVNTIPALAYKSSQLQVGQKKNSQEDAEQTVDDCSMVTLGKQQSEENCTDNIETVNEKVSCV
Procedure: Method in Hyttel, Pharmacology & Toxicology, 61, 126-129, 1987.
as §1, with “(125-250” for “(125-200”, “cortical” for “brain”, “mM tris” for “nM Tris”, “7.7” for “7,7”, “C.). The centrifuge glassware used in this step has been rinsed by sonication for 10 min. in ethanol.” for “C.).”, “500” for “400”
Incubation tubes kept on ice in triplicate receive 100 μl of drug solution in water (or water for total binding) and 2000 μl of tissue suspension (final tissue content corresponds to 4 mg original tissue). […] After incubation for 30 min. the samples are filtered under vacuum (0-50 mBar) through Whatman GF/F filters (25 mm). The tubes are rinsed with 5 ml ice-cold buffer which are then poured on the filters. Thereafter, the filters are washed with 2×5 ml of buffer. The filters are placed in counting vials and 4 ml of appropriate scintillation fluid (e.g. Picofluor™15) are added. After shaking for 1 h and storage 2 hrs in the dark the content of radioactivity is determined by liquid scintillation counting. Specific binding is obtained by subtracting the nonspecific binding in the presence of 1 μM mianserin.
as §2
The IC50 value is determined as the concentration at which the binding is 50% of the total binding in control samples minus the nonspecific binding in the presence of 1 μM mianserin.

Compound	IC50 (α1 adrenoceptors) [nM]	IC50 (dopamine D-2 receptors) [nM]	IC50 (5-HT2 receptors) [nM]	affinity to α1 adrenoceptors (in words) (α1 adrenoceptors)	affinity to 5-HT2 receptors (in words) (5-HT2 receptors)
CC(C)N1CCN(CCN2CCN([C@@H]3C[C@@H](c4ccc(F)cc4)c4cc(C(F)(F)F)ccc43)CC2)C1=O (relative stereo) [Compound 13, Trans-1-[2-[4-[3-(4-fluorophenyl)-5-(trifluoromethyl)-2,3-dihydro-1H-inden-1-yl]piperazin-1-yl]ethyl]-3-isopropyl-2-imidazolidinone]	350	510	3.7	–	–
CN1CCN(CCN2CCN([C@@H]3C[C@@H](c4ccc(F)cc4)c4cc(Cl)ccc43)CC2)C1=O (relative stereo) [Compound 18, Trans-1-[2-[4-[5-chloro-3-(4-fluorophenyl)-2,3-dihydro-1H-inden-1-yl]piperazin-1-yl]ethyl]-3-methyl-2-imidazolidinone]	600	190	2.8	–	–
CC(C)N1CCN(CCN2CCN([C@@H]3C[C@@H](c4ccc(Cl)cc4)c4cc(Cl)ccc43)CC2)C1=O (relative stereo) [Compound 27, Trans-1-[2-[4-[5-chloro-3-(4-chlorophenyl)-2,3-dihydro-1H-inden-1-yl]piperazin-1-yl]ethyl]-3-isopropyl-2-imidazolidinone]	180	280	15	–	–
Fc1ccc([C@@H]2C[C@@H](N3CCNCC3)c3ccc(Cl)cc32)cc1 (relative stereo) [Compound 10, Trans-1-[5-chloro-3-(4-fluorophenyl)-2,3-dihydro-1H-inden-1-yl]piperazine]	840	2500	11	–	–
CC1(C)CNC(=O)N(CCN2CCN([C@@H]3C[C@@H](c4ccc(F)cc4)c4cc(Cl)ccc43)CC2)C1 (single isomer, unassigned) [Compound 35, (+)-Trans-1-[2-[4-[5-chloro-3-(4-fluorophenyl)-2,3-dihydro-1H-inden-1-yl]piperazin-1-yl]ethyl]-5,5-dimethyl-tetrahydro-2(1H)-pyrimidinone]	120	150	4.8	–	–
Fc1ccc([C@@H]2C[C@@H](N3CCN(CCN4CCNC4=S)CC3)c3ccc(Cl)cc32)cc1 (relative stereo) [Compound 31, Trans-1-[2-[4-[5-chloro-3-(4-fluorophenyl)-2,3-dihydro-1H-inden-1-yl]piperazin-1-yl]ethyl]-2-imidazolidinthione]	52	67	1.5	–	–
O=C1NCCN1CCN1CCN([C@@H]2C[C@@H](c3ccc(F)cc3)c3ccccc32)CC1 [Irindalon, reference compound]	16	400	3.4	significant affinity to oh adrenoceptors	high affinity to 5-HT2 receptors
CC(C)N1CCN(CCN2CCN([C@@H]3C[C@@H](c4ccccc4)c4cc(Cl)ccc43)CC2)C1=O (relative stereo) [Compound 20, Trans-1-[2-[4-[5-chloro-3-phenyl-2,3-dihydro-1H-inden-1-yl]piperazin-1-yl]ethyl]-3-isopropyl-2-imidazolidinone]	510	750	9.9	–	–
Cc1cc([C@@H]2C[C@@H](N3CCN(CCN4CCNC4=O)CC3)c3ccc(Cl)cc32)cs1 (relative stereo) [Compound 7, Trans-1-[2-[4-[5-chloro-3-(2-methyl-4-thienyl)-2,3-dihydro-1H-inden-1-yl]piperazine-1-yl]ethyl]-2-imidazolidinone]	240	2800	7.9	–	–
CSc1ccc2c(c1)[C@H](c1ccc(F)cc1)C[C@H]2N1CCN(CCN2CCNC2=O)CC1 (relative stereo) [Compound 22, Trans-1-[2-[4-[3-(4-fluorophenyl)-5-(methylthio)-2,3-dihydro-1H-inden-1-yl]piperazin-1-yl]ethyl]-2-imidazolidinone]	240	1100	3.5	–	–
CC(C)N1CCN(CCN2CCN([C@@H]3C[C@@H](c4cccc(F)c4)c4cc(Cl)ccc43)CC2)C1=O (relative stereo) [Compound 28, Trans-1-[2-[4-[5-chloro-3-(3-fluorophenyl)-2,3-dihydro-1H-inden-1-yl]piperazin-1-yl]ethyl]-3-isopropyl-2-imidazolidinone]	970	490	26	–	–
CCN1CCN(CCN2CCN([C@@H]3C[C@@H](c4ccc(F)cc4)c4cc(Cl)ccc43)CC2)C1=O (relative stereo) [Compound 19, Trans-1-[2-[4-[5-chloro-3-(4-fluorophenyl)-2,3-dihydro-1H-inden-1-yl]piperazin-1-yl]ethyl]-3-ethyl-2-imidazolidinone]	240	260	2.6	–	–
Cc1ccc2c(c1)[C@@H](c1ccc(F)cc1)C[C@@H]2N1CCN(CCO)CC1 (relative stereo) [Compound 8, Trans-4-[3-(4-fluorophenyl)-5-methyl-2,3-dihydro-1H-inden-1-yl]-1-piperazine ethanol]	270	1000	12	–	–
CC(C)N1CCN(CCN2CCN([C@@H]3C[C@@H](c4ccc(F)cc4)c4cc(Cl)ccc43)CC2)C1=O (relative stereo) [Compound 11, Trans-1-[2-[4-[5-chloro-3-(4-fluorophenyl)-2,3-dihydro-1H-inden-1-yl]piperazin-1-yl]-ethyl]-3-isopropyl-2-imidazolidinone]	260	280	3.9	–	–
CSc1ccc2c(c1)[C@H](c1ccc(F)cc1)C[C@H]2N1CCN(CCN2CCN(C(C)C)C2=O)CC1 (relative stereo) [Compound 23, Trans-1-[2-[4-[3-(4-fluorophenyl)-5-(methylthio)-2,3-dihydro-1H-inden-1-yl]piperazin-1-yl]ethyl]-3-isopropyl-2-imidazolidinone]	250	720	4	–	–
